In patent US9266904B2, “6-bridged heteroaryldihydropyrimidines for the treatment and prophylaxis of hepatitis B virus infection” (priority 2013, dated 2016):
pEC50: −log10 of the molar value. Read-outs that look alike come from different tables or passages of the source.

Assays:
[1] = system: HBV replication in HepG2.2.15 cells; assay: Anti-HBV activity in vitro in HepG2.2.15 cells (extracellular HBV DNA by qPCR); type: cell-based; conditions: Hepatitis B virus
Summary of the method: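 Constitutively HBV-producing HepG2.2.15 cells were seeded overnight at 37 °C, then treated with half-log serial dilutions of compound (0.5% DMSO final) for five days. Supernatant HBV DNA was extracted and quantified by qPCR; EC50 is the concentration inhibiting HBV replication by 50%.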

[2] = Cytotoxicity (CCK-8 cell viability) and selectivity index; type: cell-based, human; conditions: human, HepDE19 cells; cytotoxicity, concentration resulting in death of 50% of host cells
Source text: (§1) HepG2.2.15 and HepDE19 are stably-transfected cell lines containing the HBV genome. Both cell lines are derived from the hepatoblastoma cell line Hep G2 (American Type Culture Collection, ATCC® HB-8065™) by the published procedures described in references: M A Selles et al. Proc. Natl. Acad. Sci. USA 1987, 84, 1005-1009 and H Guo et al. Journal of Virology 2007, 81, 12472-12484, respectively. Both cell lines were maintained in Dulbecco's modified Eagle's medium (DMEM)-F12 medium supplemented with 10% fetal bovine serum, 100 U/mL penicillin, 100 μg/mL streptomycin, and 0.5 mg/mL of G418.
(§2) In a cell culture model, apparent antiviral activity of a compound can be the result of host cell death after exposure to the compound. To determine whether the anti-HBV effect of a test compound is due to cytotoxicity, HepDE19 cells were seeded into 96-well plates (5×10^3 cells per well) and treated with compounds as described above for EC50 determination. Five days after treatment, cell viability was measured by addition of 20 μL of CCK-8 reagent. Two hours after incubation at 37° C., the absorbance at wavelengths of 450 nm and 630 nm (OD450 and OD630) was recorded by a plate reader. The concentration results in the death of 50% of the host cells (CC50) of each compound was determined (See Table 5).

HepDE19 cells = assay: as above; type: cell-based, human; conditions: CC50 value/EC50 value
Source text: as §1, §2

[3] = Human microsomal clearance assay; type: in vitro ADME; conditions: human, 1 μM, pH 7.4
Summary of the method: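 Liver microsomes (0.5 mg/mL protein) were incubated with 1 μM compound at 37 °C, pH 7.4 phosphate, with an NADPH-regenerating system. Samples at 0-30 min were quenched and measured by LC-MS/MS for parent loss. No-NADPH controls were included.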

[4] = HepG2.2.15, Anti-HBV activity in HepG2.2.15 cells, read-out: EC50

Row | SMILES | pEC50 [1, 4] | CC50 at 5 days [2] | Selectivity index (CC50/EC50) (HepDE19 cells) | CLh [3] | pEC50 ([1]; HepG2.2.15)
1 | COC(=O)C1=C(CN2C3COCC2CN(S(C)(=O)=O)C3)NC(c2nccs2)=N[C@H]1c1ccc(F)cc1Cl [Example 11, (R)-4-(2-Chloro-4-fluoro-phenyl)-6-(7-methanesulfonyl-3-oxa-7,9-diaza-bicyclo[3.3.1]non-9-ylmethyl)-2-thiazol-2-yl-1,4-dihydro-pyrimidine-5-carboxylic acid methyl ester] | 8.18 | > 100000 nM | >15152 | 9.0 mL/min/kg | 
2 | COC(=O)C1=C(CN2C3COCC2CN(S(N)(=O)=O)C3)NC(c2nccs2)=N[C@H]1c1ccc(F)cc1Cl [Example 19, (R)-4-(2-Chloro-4-fluoro-phenyl)-6-(7-sulfamoyl-3-oxa-7,9-diaza-bicyclo[3.3.1]non-9-ylmethyl)-2-thiazol-2-yl-1,4-dihydro-pyrimidine-5-carboxylic acid methyl ester] | 8.40 | 58000 nM | 16571 | 4.6 mL/min/kg | 
3 | COC(=O)C1=C(CN2C3COCC2CC(NS(C)(=O)=O)C3)NC(c2nccs2)=N[C@H]1c1ccc(F)cc1Cl (stereo partly drawn) [Example 36, (R)-4-(2-Chloro-4-fluoro-phenyl)-6-(7-methanesulfonylamino-3-oxa-9-aza-bicyclo[3.3.1]non-9-ylmethyl)-2-thiazol-2-yl-1,4-dihydro-pyrimidine-5-carboxylic acid methyl ester] | 8.52 | 38000 nM | 11875 | 7.8 mL/min/kg | 
4 | COC(=O)C1=C(CN2[C@@H]3COC[C@H]2C[C@H](NS(C)(=O)=O)C3)NC(c2nccs2)=N[C@H]1c1ccc(F)cc1Cl [Example 60, Methyl (4R)-4-(2-chloro-4-fluoro-phenyl)-6-[[(1R,5S)-7-exo-(methanesulfonamido)-3-oxa-9-azabicyclo[3.3.1]nonan-9-yl]methyl]-2-thiazol-2-yl-1,4-dihydropyrimidine-5-carboxylate] | 8.80 | 34000 nM | 21169 | 6.4 mL/min/kg | 
5 | COC(=O)C1=C(CN2[C@@H]3COC[C@H]2C[C@H](NC(C)=O)C3)NC(c2nccs2)=N[C@H]1c1ccc(F)cc1Cl [Example 61, Methyl (4R)-6-[[(1S,5R)-7-exo-acetamido-3-oxa-9-azabicyclo[3.3.1]nonan-9-yl]methyl]-4-(2-chloro-4-fluoro-phenyl)-2-thiazol-2-yl-1,4-dihydropyrimidine-5-carboxylate] | 8.32 | 53000 nM | 10942 | 6.3 mL/min/kg | 
6 | COC(=O)C1=C(CN2[C@@H]3COC[C@H]2C[C@H](NC(N)=O)C3)NC(c2nccs2)=N[C@H]1c1ccc(F)cc1Cl [Example 62, Methyl (4R)-4-(2-chloro-4-fluoro-phenyl)-2-thiazol-2-yl-6-[[(1S,5R)-7-exo-ureido-3-oxa-9-azabicyclo[3.3.1]nonan-9-yl]methyl]-1,4-dihydropyrimidine-5-carboxylate] | 8.15 | 46000 nM | 6571 | 4.6 mL/min/kg | 
7 | COC(=O)C1=C(CN2[C@@H]3COC[C@H]2C[C@H](NS(N)(=O)=O)C3)NC(c2nccs2)=N[C@H]1c1ccc(F)cc1Cl [Example 63, Methyl (4R)-4-(2-chloro-4-fluoro-phenyl)-6-[[(1R,5S)-7-exo-(sulfamoylamino)-3-oxa-9-azabicyclo[3.3.1]nonan-9-yl]methyl]-2-thiazol-2-yl-1,4-dihydropyrimidine-5-carboxylate] | 8.82 | 34000 nM | 22367 | 4.1 mL/min/kg | 
8 | COC(=O)C1=C(CN2C3COCC2C(F)(F)c2[nH]ncc23)NC(c2nccs2)=N[C@H]1c1ccc(F)cc1Cl (stereo partly drawn) [Example 107, (R)-4-(2-Chloro-4-fluoro-phenyl)-6-(7,7-difluoro-10-oxa-4,5,12-triaza-tricyclo[6.3.1.0*2,6*]dodeca-2(6),3-dien-12-ylmethyl)-2-thiazol-2-yl-1,4-dihydro-pyrimidine-5-arboxylic acid methyl ester] | 8.68 | 26000 nM | 12495 |  | 
9 | COC(=O)C1=C(CN2C3COCC2C(F)(F)C3)NC(c2nccs2)=N[C@H]1c1ccc(F)cc1Cl (stereo partly drawn) [Example 108, Methyl (4R)-4-(2-chloro-4-fluorophenyl)-6-[(6,6-difluoro-3-oxa-8-azabicyclo[3.2.1]octan-8-yl)methyl]-2-(1,3-thiazol-2-yl)-1,4-dihydropyrimidine-5-carboxylate] | 8.13 | 74000 nM | 9953 |  | 
10 | COC(=O)C1=C(CN2[C@@H]3C[C@@H](CC(=O)O)C[C@H]2C(F)(F)C3)NC(c2nccs2)=N[C@H]1c1ccc(F)c(F)c1C [Example 111, 2-[(1R,3R,5S)-8-[[(4S)-4-(3,4-difluoro-2-methyl-phenyl)-5-methoxycarbonyl-2-thiazol-2-yl-1,4-dihydropyrimidin-6-yl]methyl]-6,6-difluoro-8-azabicyclo[3.2.1]octan-3-yl]acetic acid] | 8.92 | 79000 nM | 65983 | 4.8 mL/min/kg | 
11 | CCOC(=O)C(O)C1(O)CC2COCC(C1)N2CC1=C(C(=O)OC)[C@H](c2ccc(F)cc2Cl)N=C(c2nccs2)N1 (stereo partly drawn) [Example 137, Methyl (4R)-4-(2-chloro-4-fluoro-phenyl)-6-[[7-(2-ethoxy-1-hydroxy-2-oxo-ethyl)-7-hydroxy-3-oxa-9-azabicyclo[3.3.1]nonan-9-yl]methyl]-2-thiazol-2-yl-1,4-dihydropyrimidine-5-carboxylate] | 8.49 | 55000 nM | 17031 |  | 
12 | CCOC(=O)CC1(NS(C)(=O)=O)CC2COCC(C1)N2CC1=C(C(=O)OC)[C@H](c2ccc(F)cc2Cl)N=C(c2nccs2)N1 (stereo partly drawn) [Example 146, Methyl (4R)-4-(2-chloro-4-fluoro-phenyl)-6-[[7-(2-ethoxy-2-oxo-ethyl)-7-(methanesulfonamido)-3-oxa-9-azabicyclo[3.3.1]nonan-9-yl]methyl]-2-thiazol-2-yl-1,4-dihydropyrimidine-5-carboxylate] | 9.30 | > 100000 nM | >200000 |  | 
13 | CCOC(=O)CC1(NC(=O)C(F)(F)F)CC2COCC(C1)N2CC1=C(C(=O)OC)[C@H](c2ccc(F)cc2Cl)N=C(c2nccs2)N1 (stereo partly drawn) [Example 147, Methyl (4R)-4-(2-chloro-4-fluoro-phenyl)-6-[[7-(2-ethoxy-2-oxo-ethyl)-7-[(2,2,2-trifluoroacetyl)amino]-3-oxa-9-azabicyclo[3.3.1]nonan-9-yl]methyl]-2-thiazol-2-yl-1,4-dihydropyrimidine-5-carboxylate] |  | > 100000 nM | >111111 |  | 9.05
14 | COC(=O)C1=C(CN2C3CC(F)(F)C2C[C@H]3C(=O)O)NC(c2nccs2)=N[C@H]1c1ccc(F)cc1Cl (stereo partly drawn) [Example 152, (5R)-7-[[(4R)-4-(2-chloro-4-fluoro-phenyl)-5-methoxycarbonyl-2-thiazol-2-yl-1,4-dihydropyrimidin-6-yl]methyl]-2,2-difluoro-7-azabicyclo[2.2.1]heptane-5-carboxylic acid] | 7.75 | > 100000 nM | >5650 |  | 
